This is an account of results in patent EP1214299B1, “MUSCARINIC ANTAGONISTS” (SCHERING CORPORATION, priority 1999, dated 2001).

Experiment [1] concerns Acetylcholine (ACh). As to the kind of experiment: Microdialysis (ACh in striatal microdialysate). Type of experiment: in vivo, male Sprague-Dawley Rats. Conditions: dose of 10 mg/kg PO; ACh in rat striatum microdialysate. How it is done:
The skull was exposed and drilled through to the dura at a point 0.2 mm anterior and 3.0 mm lateral to the bregma. At these coordinates, a guide cannula was positioned at the outer edge of the dura through the drilled opening, lowered perpendicularly to a depth of 2.5 mm, and permanent!y secured with dental cement to bone screws. Following the surgery, rats were given ampicillin (40 mg/kg, ip) and individually housed in modified cages. A recovery period of approximately 3 to 7 days was allowed before the microdialysis procedure was undertaken. • Microdialysis: All of the equipment and instrumentation used to conduct in vivo microdialysis was obtained from Bioanalytical Systems, Inc. (BAS). The microdialysis procedure involved the insertion through the guide cannula of a thin, needle-like perfusable probe (CMA/12,3 mm x 0.5 mm) to a depth of 3 mm in striatum beyond the end of the guide. The probe was connected beforehand with tubing to a microinjection pump (CMA/ 100). Rats were collared, tethered, and, following probe insertion, were placed in a large, clear, plexiglass bowl with litter material and access to food and water. The probe was perfused at 2 µl/min with Ringer's buffer (NaCl 147 mM; KCl 3.0 mM; CaCl2 1.2 mM; MgCl2 1.0 mM) containing 5.5 mM glucose, 0.2 mM L-ascorbate, and 1 µM neostigmine bromide at pH 7.4). To achieve stable baseline readings, microdialysis was allowed to proceed for 90 minutes prior to the collection of fractions. Fractions (20 µl) were obtained at 10 minute intervals over a 3 hour period using a refrigerated collector (CMA/170 or 200). Four to five baseline fractions were collected, following which the drug or combination of drugs to be tested was administered to the animal. Upon completion of the collection, each rat was autopsied to determine accuracy of probe placement. • Acetylcholine (ACh) analysis: The concentration of ACh in collected samples of microdialysate was determined using HPLC/electrochemical detection. Samples were auto-injected (Waters 712 Refrigerated Sample Processor) onto a polymeric analytical HPLC column (BAS, MF-6150) and eluted with 50 mM Na2HPO4, pH 8.5. To prevent bacterial growth, Kathon CG reagent (0.005%) (BAS) was included in the mobile phase. Eluent from the analytical column, containing separated ACh and choline, was then immediately passed through an immobilized enzyme reactor cartridge (BAS, MF-6151) coupled to the column outlet. The reactor contained both acetylcholinesterase and choline oxidase covalently bound to a polymeric backbone. […] Data acquisition was carried out using an IBM Model 70 computer equipped with a microchannel IEEE board. Integration and quantification of peaks were accomplished using "Maxima" chromatography software (Waters Corporation). Total run time per sample was 11 minutes at a flow rate of 1 ml/min. Retention times for acetylcholine and choline were 6.5 and 7.8 minutes, respectively. To monitor and correct for possible changes in detector sensitivity during chromatography, ACh standards were included at the beginning, middle and end of each sample queue.
Increases in ACh levels are consistent with presynaptic m2 receptor antagonism.
Data for representative and/or preferred compounds of the present invention are as follows (compounds were administered at a dose of 10 mg/kg PO): […]

Experiment [2] concerns the target human m1 muscarinic receptor (Homo sapiens, UniProt P11229). The experiment can be described thus: biochemical. It counts as binding.
Experiment [3] addresses human m4 muscarinic receptor (Homo sapiens, UniProt P08173). The experiment can be described thus: biochemical. It counts as binding.
The target of experiment [4] is human m3 muscarinic receptor (Homo sapiens, UniProt P20309). The note with it: read-out: m3 Ki; membranes from stably transfected CHO cell lines, 3H-QNB.
Sequence of human m3 muscarinic receptor (P20309 whole entry): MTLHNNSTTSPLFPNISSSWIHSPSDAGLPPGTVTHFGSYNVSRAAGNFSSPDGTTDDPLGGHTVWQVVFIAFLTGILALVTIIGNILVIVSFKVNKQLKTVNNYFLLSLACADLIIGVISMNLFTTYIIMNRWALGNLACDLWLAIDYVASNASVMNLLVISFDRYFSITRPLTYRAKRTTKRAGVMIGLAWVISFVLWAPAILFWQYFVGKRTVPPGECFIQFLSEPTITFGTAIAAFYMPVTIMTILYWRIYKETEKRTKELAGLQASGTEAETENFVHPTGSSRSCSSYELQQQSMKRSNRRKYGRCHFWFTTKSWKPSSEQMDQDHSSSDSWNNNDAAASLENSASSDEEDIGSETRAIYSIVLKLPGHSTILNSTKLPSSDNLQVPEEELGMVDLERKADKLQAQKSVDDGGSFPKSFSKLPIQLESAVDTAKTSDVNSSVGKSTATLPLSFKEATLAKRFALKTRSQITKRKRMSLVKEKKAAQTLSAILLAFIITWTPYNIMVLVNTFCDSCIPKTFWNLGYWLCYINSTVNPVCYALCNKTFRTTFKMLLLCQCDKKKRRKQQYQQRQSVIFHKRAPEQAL
For experiment [5], the target named is T1, m5 (Homo sapiens, UniProt P08912).
T1 sequence (P08912 1-532): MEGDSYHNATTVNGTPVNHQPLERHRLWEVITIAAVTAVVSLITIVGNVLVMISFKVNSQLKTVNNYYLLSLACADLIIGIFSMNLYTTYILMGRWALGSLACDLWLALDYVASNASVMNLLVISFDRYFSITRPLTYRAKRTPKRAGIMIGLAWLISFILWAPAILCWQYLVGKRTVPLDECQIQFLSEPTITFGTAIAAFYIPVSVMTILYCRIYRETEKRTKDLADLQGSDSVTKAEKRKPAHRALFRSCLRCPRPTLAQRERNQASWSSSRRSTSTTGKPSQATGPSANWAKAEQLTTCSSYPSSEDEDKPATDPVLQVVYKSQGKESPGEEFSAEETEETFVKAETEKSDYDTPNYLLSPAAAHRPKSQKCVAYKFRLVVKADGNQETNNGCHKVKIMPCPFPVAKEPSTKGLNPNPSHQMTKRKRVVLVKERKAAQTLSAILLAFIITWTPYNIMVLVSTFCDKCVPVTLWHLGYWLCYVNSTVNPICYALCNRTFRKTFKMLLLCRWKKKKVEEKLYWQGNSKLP
The note with it: read-out: m5 Ki.

Molecules are shown by their SMILES. Like-named read-outs stand apart in the source and are kept apart here.

Sequence of human m4 muscarinic receptor (P08173 whole entry): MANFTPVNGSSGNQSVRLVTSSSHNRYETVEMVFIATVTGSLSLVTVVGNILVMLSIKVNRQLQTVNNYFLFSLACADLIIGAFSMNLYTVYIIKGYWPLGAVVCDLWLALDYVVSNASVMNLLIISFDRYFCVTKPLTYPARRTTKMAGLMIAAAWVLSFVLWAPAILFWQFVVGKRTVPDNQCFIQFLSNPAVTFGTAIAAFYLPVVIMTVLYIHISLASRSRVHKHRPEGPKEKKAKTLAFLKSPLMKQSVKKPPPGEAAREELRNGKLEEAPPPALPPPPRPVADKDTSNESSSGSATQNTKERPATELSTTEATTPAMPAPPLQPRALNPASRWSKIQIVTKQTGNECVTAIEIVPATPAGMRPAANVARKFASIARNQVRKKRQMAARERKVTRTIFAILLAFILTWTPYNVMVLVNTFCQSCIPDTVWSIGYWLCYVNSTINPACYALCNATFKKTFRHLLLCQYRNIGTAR
Sequence of human m1 muscarinic receptor (P11229 whole entry): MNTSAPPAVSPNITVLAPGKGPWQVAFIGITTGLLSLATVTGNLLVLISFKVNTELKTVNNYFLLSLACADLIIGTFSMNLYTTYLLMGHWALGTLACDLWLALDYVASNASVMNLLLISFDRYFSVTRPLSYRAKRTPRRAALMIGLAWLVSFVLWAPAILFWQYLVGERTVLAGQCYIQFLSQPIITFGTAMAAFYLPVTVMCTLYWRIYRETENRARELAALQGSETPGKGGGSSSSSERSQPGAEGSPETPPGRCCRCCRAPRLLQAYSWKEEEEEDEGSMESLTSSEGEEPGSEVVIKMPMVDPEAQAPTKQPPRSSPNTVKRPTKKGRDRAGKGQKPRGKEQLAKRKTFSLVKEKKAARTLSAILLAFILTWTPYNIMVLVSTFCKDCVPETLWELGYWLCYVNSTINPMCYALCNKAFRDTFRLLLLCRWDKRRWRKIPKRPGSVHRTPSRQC

Take `COc1ccc(S(=O)(=O)c2ccc(C3(C4CCN(C5CCN(C(=O)c6cccc(F)c6N)CC5)CC4)OCCO3)cc2)cc1` [Example 2F]: in experiment [1], the “Microdialysis Maximum % of baseline” value was 186 % of baseline.

Take `COc1ccc(S(=O)(=O)c2ccc(C3(C4CCN(C5CCN(C(=O)c6cccc(C)c6N)CC5)CC4)OCCO3)cc2)cc1` [Example 2]: the “Microdialysis Maximum % of baseline” value in experiment [1] was 194 % of baseline.

With `Nc1cc(F)ccc1C(=O)N1CCC(N2CCC(C3(c4ccc(S(=O)(=O)c5cccc(Cl)c5)cc4)OCCO3)CC2)CC1` [Example 3E], the “Microdialysis Maximum % of baseline” value in experiment [1] is on record as 188 % of baseline.

One may read the Ki as a measure of affinity in units of concentration, obtained from inhibition or displacement. Take `Nc1ccccc1C(=O)N1CCC(N2CCC(Cc3ccc(S(=O)(=O)c4cccc(Cl)c4)cc3)CC2)CC1` [Example 7A]: the Ki in experiment [2] was determined as 658 nM; in experiment [3] it was 33.3 nM. Moreover, in experiment [1], the “Microdialysis Maximum % of baseline” value is given as 150 % of baseline.

For `Cc1cccc(C(=O)N2CCC(N3CCC(Cc4ccc(S(=O)(=O)c5cccc(Cl)c5)cc4)CC3)CC2)c1N` [Example 7], the Ki in experiment [4] turned out to be 698 nM; in experiment [2] (membranes from stably transfected CHO cell lines, 3H-QNB, read-out: m1 Ki) it was 650 nM; in experiment [5], 84.5 nM; in experiment [3] (membranes from stably transfected CHO cell lines, 3H-QNB, read-out: m4 Ki), 61.4 nM. For the same compound, the “Microdialysis Maximum % of baseline” value in experiment [1] is recorded as 180 % of baseline.
